US9840483B2, “Radiomitigating pharmaceutical formulations” (The Regents of the University of California, priority 2013, dated 2017)
≈ marks a conversion by molar mass, not a printed value.

Experiments:
TNF-α mRNA = experiment: Cytokine mRNA expression in LPS-stimulated bone marrow-derived macrophages (qPCR); type: cell-based, murine; settings: added to bone marrow-derived macrophages 1 hr after LPS, RT-PCR
Protocol: Additionally, bone marrow-derived macrophages (BMDMs) were derived by 7 days culture of marrow cells in medium containing 10% FBS and CSF-1 conditioned medium. The serum concentration was reduced to 2% FBS 16 h before stimulation with LPS for 30 min, treatment with drug and incubation for another 3.5 h (4 h total with LPS). Total cellular RNA was isolated by trizol and cDNA synthesized using iScript from BioRad. Gene expression was measured by qPCR and analyzed using the standard curve method, normalized to L32.

C3H mice and C57 mice = experiment: Local thoracic irradiation, radiation pneumonitis and fibrosis; type: in vivo; settings: local thoracic irradiation 14 and 18 Gy
myeloid suppressor cells = experiment: In vivo anti-inflammatory activity, generation of myeloid suppressor cells; settings: data not shown
C57Bl/6 mice = experiment: Localized abdominal irradiation survival; type: in vivo; settings: 16 and 18 Gy abdominally
[1] = system: endogenous colony forming units in the spleens; experiment: Endogenous colony forming units in spleens after WBI; type: in vivo, mice; settings: for Average endogenous CFU per spleen / Total endogenous CFU in spleens: 10 days after WBI at 6.5 Gy, 7.0 Gy, and 7.5 Gy
Source text: For example, Compound 2 (5355512) increased the total endogenous CFU in spleens and average endogenous CFU per spleen, at 10 days after whole body irradiation (WBI) at varying doses (e.g. 6.5 Gy, 7.0 Gy, and 7.5 Gy). (See FIG. 13).

[2] = system: induced peritoneal macrophages; experiment: Activation status of induced peritoneal macrophages after subcutaneous treatment of control or WBI mice; type: in vivo; settings: for TNF-α production of induced peritoneal cells in response to LPS after treatment in vivo: compound given subcutaneously, macrophages harvested day 4, incubated 24 h with LPS
Protocol: To determine if compound 2 (5355512), injected subcutaneously would affect the activation status of induced peritoneal macrophages, compound 2 (5355512) was given subcutaneously to control or WBI (5 Gy) and peritoneal macrophages harvested at day 4 as before. Cells from these groups of mice were incubated for 24 h with LPS or LPS then 512 (See FIG. 12). […] However, this “priming” effect was less when WBI and Compound 2 (5355512) were combined in vivo.

[3] = system: C3Hf/Kam and C57B16/J mice; experiment: Animal Whole Body Irradiation (WBI) assay, mitigation of lethality; type: in vivo
Protocol: Briefly, Animal Whole Body Irradiation (WBI) Assays were conducted with C3Hf/Kam and C57B16/J mice. The mice were bred and maintained in a strict gnotobiotic environment in the American Association of Laboratory Animal Care-Accredited Animal Facilities of Department of Radiation Oncology, UCLA. The Animal Care and Use Committee approved all experiments, which were performed in accordance with all local and national guidelines for the care and use of animals. Mice, 9-12 weeks old, were given WBI using a Gamma cell 40 irradiator (Cs137 source; Atomic Energy of Canada, Ltd.) at a dose rate of […]. Mice were monitored for at least 30 days and defined criteria for humane euthanasia was used as an endpoint.
Compounds were typically dissolved in 15 μL DMSO and suspended in 1 mL of 1% Cremphor EL in water for administration in 0.2 mL volumes. […] All mice, including controls, received the same diluent as the experimental groups. The chosen compounds were administered to the mice 5 times at 24 h intervals, starting 24 hours after WBI at LD70/30 (7.725 Gy for the C3H strain) doses. Similar data were obtained with a single dose and at 48 hours after radiation exposure in both mouse strains. Both subcutaneous and oral routes were effective. The compounds provided greatly elevated animals survival level as compared to control group.
Dose response experiments were executed in a manner similar to the WBI Assay described in Example 3. […] Both Compound 2 (53555.12) and Compound 3 (5346360) were effective in C57Bl/6 female mice in this case mitigating against LD70/30 doses of 8.509 Gy due to the relative radioresistance of this strain relative to C3Hs. […] When given orally by gavage, Compound 2 (535551.2) in 5 daily doses starting at 24 hours post-WBI was effective at 5 mg/kg in both C3H and C57Bl/6 strains, but not at 25 mg/kg.
Probit analyses of the effect of varying the radiation dose with Compound 2 (5355512) (5 mg/kg), and Compound 3 (5346360) (5 mg/kg), or 5 (5116319) (75 mg/kg) given subcutaneously for 5 days starting 24 hours after WBI, is shown in FIG. 6, with 95% confidence limits shown for LD50 values. The dose-response curves are steep with the dose modifying factors varying with the level of effect and drug, but were in the range 1.04-1.09. Such factors have to be considered against the level of the control and the reason for lethality. In this case, hematological insufficiency and not infection is the cause of death and as a result the radioresistance of the C3H strain is relatively high.
Compounds P1, P2, and P3, analogs of Compound 2 (5355512), were synthesized according to standard protocols. […] The analogs were injected subcutaneously 5 times over 5 clays at 5 mg/kg. Compound P2 elicited 100% survival after 30 days.

Solubility = type: physicochemical
TNF-α production = TNF-α production by LPS-stimulated peritoneal macrophages (ELISA); type: cell-based, murine
Protocol: NPSPs were tested for their anti-inflammatory ability using murine macrophages. […] Briefly, peritoneal macrophages (PMs) were induced by intraperitoneal, injection of 150 μg MIS416 (Innate Immunotherapeutics, NZ) and harvested on day 4 by peritoneal wash out with PBS. Culture supernatants were harvested at 24 hrs and cytokines tested by ELISA (BD Biosciences, SD).

## O=[N+]([O-])c1ccc(S(=O)(=O)N2CCN(c3ccccc3)CC2)cc1 [Compound 2, 1-[(4-nitrobenzene)sulfonyl]-4-phenylpiperazine]
TNF-α mRNA
  Expression of TNF-α mRNA and other cytokines: inhibit expression of TNF-α mRNA, and other cytokines
C3H mice and C57 mice
  Survival post thoracic radiation: supported survival of C3H mice and C57 mice to 100 days
Myeloid suppressor cells
  Anti-inflammatory activity in vivo: showed anti-inflammatory activity
C57Bl/6 mice
  Mitigation of abdominal radiation: mitigation of abdominal radiation
[1]
  Average endogenous CFU per spleen: increased
  Total endogenous CFU in spleens: increased
[1]; listed as compound 2
  Average endogenous CFU per spleen: increases
  Total endogenous CFU in spleens: increases
[1]; mice that had received LD70/30 radiation doses
  Number of endogenous colony forming units in the spleens: increased
[2]; WBI (5 Gy) plus compound subcutaneously
  Priming effect when WBI and compound combined in vivo: less
[2]
  TNF-α production of induced peritoneal cells in response to LPS after treatment in vivo: “primed” induced peritoneal cells to produce TNF-α
[2]; listed as compound 2
  TNF-α production of induced peritoneal cells in response to LPS after treatment in vivo: induces peritoneal macrophages to produce TNF-α
[2]; harvested cells incubated with LPS then compound
  TNF-α production after addition of compound in vitro: blunted TNF-α production
[3]; 5 mg/kg injected subcutaneously
  Mitigation of WBI lethality at 5 mg/kg: effective
[3]; C3H male mice, compared with 1, 2, 10, 40, or 75 mg/kg
  Most effective dose in dose response: 5 mg/kg
[3]; C57Bl/6 female mice, LD70/30 dose 8.509 Gy
  Mitigation of WBI lethality in C57Bl/6 female mice: effective
[3]; lowest dosage 5 mg/kg subcutaneously, superior to 40 and 75 mg/kg
  Survivors at day 30: 100%
[3]; orally by gavage, 5 daily doses starting 24 hours post-WBI, 5 mg/kg, C3H and C57Bl/6 strains
  Mitigation of WBI lethality, oral gavage 5 mg/kg: effective
[3]; orally by gavage, 5 daily doses starting 24 hours post-WBI, 25 mg/kg, C3H and C57Bl/6 strains
  Mitigation of WBI lethality, oral gavage 25 mg/kg: not
[3]; single dose given 48 hours after WBI
  Mitigation of WBI lethality, single dose at 48 hours: Some activity was retained
[3]; single dose given 72 hours after WBI
  Mitigation of WBI lethality, single dose at 72 hours: not
[3]; single dose increased to 25 mg/kg, 24 hours after WBI
  Effect of increasing the single dose: did not improve efficacy
[3]; single dose of 5 mg/kg given 24 hours after WBI
  Mitigation of WBI lethality, single dose: effective
Solubility
  solubility: 66.1 µM (≈ 23 µg/mL)
TNF-α production; added to stimulated peritoneal macrophages 1 hr after LPS, supernatants at 24 hrs, ELISA
  TNF-α production: inhibit TNF-α production
TNF-α production; murine macrophages
  Anti-inflammatory activity: LPS-induced production of tumor necrosis factor and other inflammatory cytokines: showed anti-inflammatory activity
